Experimental findings from US7326715B2, “4-Phenyl-6-substituted-pyrimidine-2-carbonitrile derivatives” (N.V. Organon, priority 2005, dated 2008) are described below.

Molecules are shown by their SMILES. Counter-ions that a name gives are not always drawn.

This assay has as its target T1, recombinant human Cathepsin K (Homo sapiens, UniProt P43235).
T1 sequence (P43235 115-329): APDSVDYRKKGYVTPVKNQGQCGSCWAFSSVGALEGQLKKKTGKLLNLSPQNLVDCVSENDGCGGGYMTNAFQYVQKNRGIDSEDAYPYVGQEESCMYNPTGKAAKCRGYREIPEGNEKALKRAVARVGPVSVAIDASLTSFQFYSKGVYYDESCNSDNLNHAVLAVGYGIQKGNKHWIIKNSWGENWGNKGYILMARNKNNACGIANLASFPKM
Kind of assay: Cathepsin K activity: inhibition of recombinant human Cathepsin K (Z-Phe-Arg-AMC fluorescence). As to conditions: substrate Z-Phe-Arg-AMC, pH 5.5, fluorescence at 10 minutes, read-out: pIC50 (negative logarithm of the IC50 concentration) for inhibition of human cathepsin K (converted). In kind it is biochemical. As to the method:
To a 384 well microtitre plate is added 5 μl of a 100 μM solution of test compound in assay buffer (100 mM sodium acetate pH 5.5, 5 mM EDTA, 5 mM dithiothreitol) with 10% dimethylsulfoxide (DMSO), plus 10 μl of 100 μM solution of the substratre Z-Phe-Arg-AMC (Bachem; 7-amido-coumarine derivative of the dipeptide N-benzyloxycarbonyl-Phe-Arg-OH) in assay buffer and 25 μl of assay buffer. 10 μl of a 1 mg/l solution of activated recombinant human cathepsin K, in assay buffer, is then added to the well, yielding a final inhibitor concentration of 10 μM. Enzyme activity is determined by measuring the fluorescence of the liberated aminomethylcoumarin at […] using 390 nm excitation, at 10 minutes. Percentage enzyme activity is calculated by comparison of this activity to that of a solution containing no inhibitor. Compounds are subsequently subjected to a dose response curve analysis in order to determine IC50 values for active compounds (where IC50 is the concentration of test compound causing 50% inhibition of the enzymatic activity).
Compounds of the invention typically have a pIC50 (negative logarithm of the IC50 concentration) for inhibition of human cathepsin K of more than 6, preferably more than 7 and most preferably a pIC50 of more than 8, such as for the compounds of Examples 1, 2a, 2b, 3, 5, 6, 8, 12, 14, 13, 16k, 16n, 16o, 17, 22a, 22b, 22c
Regarding `N#Cc1nc(-c2cccc(C(F)(F)F)c2)cc(N2CCNCC2)n1` [Example 1, 4-(Piperazin-1-y)l-6-(3-trifluoromethylphenyl)-pyrimidine-2-carbonitrile], the IC50 is less than 10 nM.

With `COCCN1CCN(c2cc(-c3cccc(C(F)(F)F)c3)nc(C#N)n2)CC1` [Example 2a, 4-[4-(2-Methoxy-ethyl)-piperazin-1-yl]-6-(3-trifluoromethy-phenyl)-pyrimidine-2-carbonitrile], the IC50 is less than 10 nM.

Turning to `N#Cc1nc(-c2cccc(C(F)(F)F)c2)cc(N2CCN(CC(N)=O)CC2)n1` [Example 2b, 4-(4-carbamoylmethyl-piperazin-1-yl)-6-(3-trifluoromethyl-phenyl)-pyrimidine-2-carbonitrile], the IC50 was less than 10 nM.

Regarding `N#Cc1nc(-c2cccc(C(F)(F)F)c2)cc(N2CCN(CCC(=O)O)CC2)n1` [Example 5, 4-[4-(2-carboxy-ethyl)-piperazin-1-yl]-6-(3-trifluoromethyl-phenyl)-pyrimidine-2-carbonitrile trifluoroacetic acid salt], the IC50 is less than 10 nM.

With `N#Cc1nc(-c2cccc(C(F)(F)F)c2)cc(N2CCN(CC3CC3)CC2)n1` [Example 6, 4-(4-Cyclopropylmethyl-piperazin-1-yl)-6-(trifluoromethyl-phenyl)-pyrimidine-2-carbonitrile trifluoroacetic acid salt], the IC50 was less than 10 nM.

In the case of `N#Cc1nc(-c2cccc(C(F)(F)F)c2)cc(N2CCN(C3CC3)CC2)n1` [Example 8, 4-(4-Cyclopropyl-piperazin-1-yl)-6-(trifluoromethyl-phenyl)-pyrimidine-2-carbonitrile hydrochloric acid salt], the IC50 was less than 10 nM.

For `CN1CCN(c2cc(-c3cccc(C(F)(F)F)c3)nc(C#N)n2)CC1(C)C` [Example 12, 4-(3,3,4-Trimethyl-piperazin-1-yl)-6-(3-trifluoromethyl-phenyl)-pyrimidine-2-carbonitrile], the IC50 was less than 10 nM.

For the compound `N#Cc1nc(-c2cccc(C(F)(F)F)c2)cc(N2CCCNCC2)n1` [Example 13, 4-[1,4]Diazepan-1-yl-6-(3-trifluoromethylphenyl)-pyrimidine-2-carbonitrile], the IC50 is less than 10 nM.

Take `CN1CCCN(c2cc(-c3cccc(C(F)(F)F)c3)nc(C#N)n2)CC1` [Example 14, 4-(4-Methyl-[1,4]diazepan-1-yl)-6-(3-trifluoromethyl-phenyl)-pyrimidine-2-carbonitrile]: the IC50 was less than 10 nM.

On to `CN1CCC(N(C)c2cc(-c3cccc(C(F)(F)F)c3)nc(C#N)n2)CC1` [Example 16k, 4-[Methyl-(1-methyl-piperidin-4-yl)-amino]-6-(3-trifluoromethyl-phenyl)-pyrimidine-2-carbonitrile trifluoroacetic acid salt], for which the IC50 was less than 10 nM.

For the compound `N#Cc1nc(NCc2nnn[nH]2)cc(-c2cccc(C(F)(F)F)c2)n1` [Example 16n, 4-[(1H-Tetrazol-5-ylmethyl)-amino]-6-(3-trifluoromethyl-phenyl)-pyrimidine-2-carbonitrile], the IC50 was less than 10 nM.

For `N#Cc1nc(NCC(=O)O)cc(-c2cccc(C(F)(F)F)c2)n1` [Example 16o, 4-(Carboxymethyl-amino)-6-(3-trifluoromethyl-phenyl)-pyrimidine-2-carbonitrile], the IC50 is less than 10 nM.

As to `COc1ccc(-c2cc(N3CCNCC3)nc(C#N)n2)cc1C(F)(F)F` [Example 17, 4-(4-Methoxy-3-trifluoromethyl-phenyl)-6-piperazin-1-yl-pyrimidine-2-carbonitrile], the IC50 was less than 10 nM.

Take `N#Cc1nc(OCCN2CCCCC2)cc(-c2cccc(C(F)(F)F)c2)n1` [Example 22a, 4-(2-Piperidin-1-yl-ethoxy)-6-(3-trifluoromethyl-phenyl)-pyrimidine-2-carbonitrile]: the IC50 was less than 10 nM.

As for `N#Cc1nc(OCCN2CCOCC2)cc(-c2cccc(C(F)(F)F)c2)n1` [Example 22b, 4-(2-Morpholin-4-yl-ethoxy)-6-(3-trifluoromethyl-phenyl)-pyrimidine-2-carbonitrile], the IC50 was less than 10 nM.

On to `CCN(CC)CCOc1cc(-c2cccc(C(F)(F)F)c2)nc(C#N)n1` [Example 22c, 4-(2-Diethylamino-ethoxy)-6-(3-trifluoromethyl-phenyl)-pyrimidine-2-carbonitrile], for which the IC50 was less than 10 nM.
